Experimental data reported in patent US20050020588A1, “Cysteine protease inhibitors” (priority 1999, published 2005).
Where two headings read alike, the source gives them in different places.

Experiments:
Mammalian Cathepsin S = Mammalian Cathepsin S (Homo sapiens, UniProt P25774); experiment: Ki competitive inhibition, mammalian cathepsin S; assay type: biochemical
Protocol: (§1) Cathepsin S (Mammalian, murine and rat)
(§2) Assays were performed in 100 mM sodium phosphate, 100 mM NaCl, pH 6.5 (buffer) in white 384 well plates (Coming Costar). Eight inhibitors were assayed per plate.
(§3) Inhibitor dilutions were performed on a 96 well V-bottomed polypropylene plate (Corning Costar). 100 μl of buffer was placed in wells 2-5 and 7-12 of rows A, B, C and D. Sufficient of each inhibitor at 10 mM in DMSO was placed into wells A1-D1 and A6-D6 to give the desired final concentration when the volume in the well was made up to 200 μl with buffer. Column 1 was made up to 200 μl with buffer, mixed by aspirating and dispensing 100 μl in the well, and 100 μl transferred to column 2. The pipette tips were changed and the mixing and transferral repeated to column 5. This process was repeated for columns 6-10.
(§4) Substrate dilutions were performed on a 96 deep well polypropylene plate (Beckman Coulter). 280 μl of buffer was placed in wells B-H of columns 1 and 2.70 μl of 10 mM boc-Val-Leu-Lys-AMC was placed in A1 and A2. 2×250 μl of buffer was added to wells A1 and A2, mixed by aspirating and dispensing 280 μl in the well, and 280 μl transferred to row B. The pipette tips were changed and the process repeated down the plate to row H.
(§5) Column 1 of the substrate dilution plate was distributed at 10 μl per well into alternate rows beginning at row A. Column 2 was distributed to alternate rows beginning at row B. Row A of the inhibitor dilution plate was distributed at 10 μl per well to alternate rows and columns starting at A1. Row B was distributed to alternate rows and columns starting at A2. Row C was distributed to alternate rows and columns starting at B1 and row D was distributed to alternate rows and columns starting at B2. The assay was started by the addition of 30 μl per well of 20 nM cathepsin S in buffer containing 10 mM 2-mercaptoethanol.
(§6) Data were saved as text files and imported into Excel. The initial rates were determined by linear regression and then fitted to the competitive inhibition equation using SigmaPlot.

Murine Cathepsin S = Murine Cathepsin S (Mus musculus, UniProt O70370); experiment: Ki competitive inhibition, murine cathepsin S; assay type: biochemical
Protocol: as §1, §2, §3, §4, §5, §6

Rat Cathepsin S = Rat Cathepsin S (Rattus norvegicus, UniProt Q02765); experiment: Ki competitive inhibition, rat cathepsin S; assay type: biochemical
Protocol: as §1, §2, §3, §4, §5, §6

Mammalian Cathepsin L = Mammalian Cathepsin L (Homo sapiens, UniProt P07711); experiment: Ki competitive inhibition, cathepsin L; assay type: biochemical
Protocol: as §6
(§7) Assays were performed essentially as above. For cathepsin L, the buffer used was 100 mM sodium acetate, 1 mM EDTA, pH 5.5 and the substrate was D-Val-Leu-Lys-AMC with a highest concentration of 100 μM. For cathepsin K, the buffer used was 100 mM MES/Tris, 1 mM EDTA, pH 7.0 and the substrate was D-Ala-Leu-Lys-AMC with a highest concentration of 250 μM.

Mammalian Cathepsin K = molecular target: T1, Mammalian Cathepsin K (Homo sapiens, UniProt P43235); experiment: Ki competitive inhibition, cathepsin K; assay type: biochemical
T1 sequence (P43235 115-329): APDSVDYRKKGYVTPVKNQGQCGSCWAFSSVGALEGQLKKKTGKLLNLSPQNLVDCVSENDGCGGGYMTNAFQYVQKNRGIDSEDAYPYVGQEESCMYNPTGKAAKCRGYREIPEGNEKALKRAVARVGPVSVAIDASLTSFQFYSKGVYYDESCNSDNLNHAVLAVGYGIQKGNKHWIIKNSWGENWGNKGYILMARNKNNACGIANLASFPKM
Protocol: as §7
Convenient assays for cathepsin K arere carried out using human recombinant enzyme. Standard assay conditions for the determination of kinetic constants used a fluorogenic peptide substrate, typically H-D-Ala-Leu-Lys-AMC, and were determined in either 100 mM Mes/Tris, pH 7.0 containing 1 mM EDTA and 10 mM 2-mercaptoethanol or 100 mM Na acetate, pH 5.5 containing 5 mM EDTA and 20 mM cysteine. The enzyme concentration used was 5 nM. The stock substrate solution was prepared at 10 mM in DMSO. Screens were carried out at a fixed substrate concentration of 60 μM and detailed kinetic studies with doubling dilutions of substrate from 250 μM. The total DMSO concentration in the assay was kept below 3%. All assays were conducted at ambient temperature. Product fluorescence (excitation at 390 nm, emission at 460 nm) was monitored with a Labsystems Fluoroskan Ascent fluorescent plate reader. Product progress curves were generated over 15 minutes following generation of AMC product.
Potential inhibitors are screened using the above assay with variable concentrations of test compound. Reactions were initiated by addition of enzyme to buffered solutions of substrate and inhibitor. Ki values were calculated according to equation 1 [formula] where ν0 is the velocity of the reaction, V is the maximal velocity, S is the concentration of substrate with Michaelis constant of KM, and I is the concentration of inhibitor. Determination of Falcipain 2 Proteolytic Catalytic Activity

[1] = Oral bioavailability in mice; settings: mouse, in vivo, dosed i.v. and orally at 10 mg/kg to mice, read-out: oral bioavailability % (F)
[2] = Table 2, Human, read-out: Ki (μM) Human, Mammalian Cathepsin S
[3] = Table 2, Mouse, read-out: Ki (μM) Mouse, Murine Cathepsin S
[4] = Table 2, Rat, read-out: Ki (μM) Rat, Rat Cathepsin S
[5] = Table 1, first line of each CAP-P2 block, read-out: Ki competitive inhibition measurements vs Mammalian Cathepsin S
[6] = Table 1, second line of each CAP-P2 block, read-out: Ki competitive inhibition measurements vs Mammalian Cathepsin L
[7] = Table 1, third line of each CAP-P2 block, read-out: Ki competitive inhibition measurements vs Mammalian Cathepsin K

Chain of Rat Cathepsin S (Q02765 113-330): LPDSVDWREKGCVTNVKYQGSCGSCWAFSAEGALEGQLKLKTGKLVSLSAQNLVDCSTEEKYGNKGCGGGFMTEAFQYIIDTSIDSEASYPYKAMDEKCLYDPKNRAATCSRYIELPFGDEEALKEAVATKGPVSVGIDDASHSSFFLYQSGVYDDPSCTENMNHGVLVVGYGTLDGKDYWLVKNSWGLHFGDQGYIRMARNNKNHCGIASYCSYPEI
Chain of Mammalian Cathepsin S (P25774 115-331): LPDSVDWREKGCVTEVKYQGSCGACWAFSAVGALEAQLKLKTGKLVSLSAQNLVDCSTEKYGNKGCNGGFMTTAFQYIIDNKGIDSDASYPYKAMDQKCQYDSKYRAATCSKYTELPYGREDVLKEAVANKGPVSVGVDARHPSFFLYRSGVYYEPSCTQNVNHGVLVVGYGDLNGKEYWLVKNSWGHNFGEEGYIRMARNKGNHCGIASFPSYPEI
Chain of Mammalian Cathepsin L (P07711 114-333): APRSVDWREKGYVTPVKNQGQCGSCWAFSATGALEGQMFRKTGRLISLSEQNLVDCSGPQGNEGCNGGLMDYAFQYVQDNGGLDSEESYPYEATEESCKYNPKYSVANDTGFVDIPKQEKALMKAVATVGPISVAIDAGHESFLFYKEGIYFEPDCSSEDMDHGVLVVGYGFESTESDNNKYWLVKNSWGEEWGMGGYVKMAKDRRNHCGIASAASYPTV

For `CC[C@@H]1OCC(=O)[C@H]1NC(=O)[C@H](CC(C)(C)C)NC(=O)c1ccoc1` [drawing 79/drawing 78 X = O], the Ki (Mammalian Cathepsin S; [2]) was 0.053 µM, the Ki (Murine Cathepsin S; [3]) was 0.039 µM and the Ki (Rat Cathepsin S; [4]) was 0.058 µM.
`CC[C@@H]1OCC(=O)[C@H]1NC(=O)[C@H](CC(C)(C)C(C)C)NC(=O)c1ccoc1` [CAP8-Hybrid3/drawing 68, Furan-3-carboxylic acid[3,3,4-trimethyl-1S-(2S-ethyl-4-oxo-tetrahydrofuran-3-ylcarbamoyl)pentyl]amide] gave a Ki (Mammalian Cathepsin S; [5]) of 0.015 µM, a Ki (Mammalian Cathepsin S; [2]) of 0.015 µM and a Ki (Mammalian Cathepsin S; read-out: Ki mammalian cath S) of 0.015 µM. It also gave a Ki (Murine Cathepsin S; read-out: Ki murine cath S) of 0.149 µM, a Ki (Rat Cathepsin S; read-out: Ki rat cath S) of 0.271 µM and a Ki (Mammalian Cathepsin L; [6]) greater than 100000 nM. It also gave a Ki (Mammalian Cathepsin L; read-out: Ki cathepsin L) greater than 100000 nM and a Ki (Mammalian Cathepsin K; read-out: Ki cathepsin K) of 5500 nM.
Work on `CC1OCC(=O)C1NC(=O)C(CC(C)(C)C)NC(=O)c1ccsc1` [CAP11-L-tBu-Ala/drawing 71] yielded a Ki (Mammalian Cathepsin S; [5]) of 0.095 µM, a Ki (Mammalian Cathepsin S; [2]) of 0.095 µM and a Ki (Murine Cathepsin S; [3]) of 0.048 µM. The Ki (Rat Cathepsin S; [4]) was 0.084 µM, the Ki (Mammalian Cathepsin L; [6]) was 55200 nM and the Ki (Mammalian Cathepsin K; [7]) was 1550 nM.
Molecule `CCCCC(NC(=O)c1ccc(N(C)C)cc1)C(=O)NC1C(=O)COC1C` [CAP7-L-Nle/drawing 70] has a Ki (Mammalian Cathepsin S; [5]) of 6.8 µM, a Ki (Mammalian Cathepsin L; [6]) of 46700 nM and a Ki (Mammalian Cathepsin K; [7]) of 3100 nM.
Molecule `O=C(NC(Cc1ccc(O)cc1)C(=O)NC1COCC1=O)c1ccc(O)cc1` [CAP1-L-Tyr/drawing 72] has a Ki (Mammalian Cathepsin S; [5]) of 0.86 µM, a Ki (Mammalian Cathepsin L; [6]) of 330 nM and a Ki (Mammalian Cathepsin K; [7]) of 27100 nM.
`O=C(N[C@@H](Cc1ccc(O)cc1)C(=O)N[C@H]1COCC1=O)c1ccccc1` [CAP3-L-Tyr/drawing 72] showed a Ki (Mammalian Cathepsin S; [5]) of 1.6 µM, a Ki (Mammalian Cathepsin L; [6]) of 250 nM and a Ki (Mammalian Cathepsin K; [7]) greater than 100000 nM.
Molecule `CCn1nc(C)cc1C(=O)NC(Cc1ccc(O)cc1)C(=O)NC1COCC1=O` [CAP10-L-Tyr/drawing 72] has a Ki (Mammalian Cathepsin S; [5]) of 3.7 µM, a Ki (Mammalian Cathepsin L; [6]) of 100 nM and a Ki (Mammalian Cathepsin K; [7]) greater than 100000 nM.
In the case of `CC(C)CC[C@H](NC(=O)c1ccoc1)C(=O)N[C@@H]1C(=O)CO[C@H]1C` [CAP8-L-hLeu/drawing 71], the Ki (Mammalian Cathepsin S; [5]) is reported as 0.37 µM, the Ki (Mammalian Cathepsin L; [6]) is reported as greater than 100000 nM and the Ki (Mammalian Cathepsin K; [7]) is reported as greater than 100000 nM.
With `CC(C)C[C@H](NC(=O)c1cccs1)C(=O)N[C@@H]1C(=O)CO[C@@H]1C` [CAP5-L-Leu/drawing 69] the Ki (Mammalian Cathepsin S; [5]) was 0.48 µM, the Ki (Mammalian Cathepsin L; [6]) was 1480 nM and the Ki (Mammalian Cathepsin K; [7]) was 290 nM.
`C[C@@H]1OCC(=O)[C@H]1NC(=O)[C@H](CC(C)(C)C)NC(=O)c1ccoc1` [CAP8-L-tBu-Ala/drawing 71, Furan-3-carboxylic acid[3,3-dimethyl-1S-(2S-methyl-4-oxo-tetrahydrofuran-3S-ylcarbamoyl)butyl]amide] showed a Ki (Mammalian Cathepsin S; [5]) of 0.1 µM, a Ki (Mammalian Cathepsin S; [2]) of 0.13 µM and a Ki (Murine Cathepsin S; [3]) of 0.1 µM. It also gave a Ki (Rat Cathepsin S; [4]) of 0.211 µM, a Ki (Mammalian Cathepsin L; [6]) greater than 100000 nM and a Ki (Mammalian Cathepsin K; [7]) of 7300 nM. For the same molecule, the bioavailability [1] was 58%.
For `Cc1cc(C(=O)N[C@@H](Cc2ccc(O)cc2)C(=O)N[C@@H]2COCC2=O)oc1C` [CAP6-L-Tyr/drawing 73], the Ki (Mammalian Cathepsin S; [5]) was 2.3 µM, the Ki (Mammalian Cathepsin L; [6]) was 140 nM and the Ki (Mammalian Cathepsin K; [7]) was greater than 100000 nM.
Molecule `CC(C)C[C@H](NC(=O)c1ccc(O)cc1)C(=O)N[C@H]1C(=O)CO[C@H]1C` [CAP1-L-Leu/drawing 70] has a Ki (Mammalian Cathepsin S; [5]) of 0.23 µM, a Ki (Mammalian Cathepsin L; [6]) of 2700 nM and a Ki (Mammalian Cathepsin K; [7]) of 410 nM.
With `Cc1cc(C(=O)N[C@@H](Cc2ccc(O)cc2)C(=O)N[C@H]2C(=O)CO[C@H]2C)oc1C` [CAP6-L-Tyr/drawing 70] the Ki (Mammalian Cathepsin S; [5]) was 0.24 µM, the Ki (Mammalian Cathepsin L; [6]) was 670 nM and the Ki (Mammalian Cathepsin K; [7]) was greater than 100000 nM.
Molecule `Cc1cc(C(=O)N[C@@H](CC(C)C)C(=O)N[C@H]2C(=O)CO[C@H]2C)oc1C` [CAP6-L-Leu/drawing 70] has a Ki (Mammalian Cathepsin S; [5]) of 0.61 µM, a Ki (Mammalian Cathepsin L; [6]) of 1100 nM and a Ki (Mammalian Cathepsin K; [7]) of 750 nM.
For `C[C@H]1OCC(=O)[C@H]1NC(=O)[C@H](Cc1ccc(O)cc1)NC(=O)Cc1ccccc1` [CAP2-L-Tyr/drawing 69], the Ki (Mammalian Cathepsin S; [5]) was 3.2 µM, the Ki (Mammalian Cathepsin L; [6]) was 220 nM and the Ki (Mammalian Cathepsin K; [7]) was greater than 100000 nM.
